Experimental data taken from US20090048301A1 (IMCLONE SYSTEMS INCORPORATED, priority 2003, published 2009).

Key:
bovine tubulin = test: In vitro tubulin polymerization assay (turbidity at 340 nm); type: biochemical; conditions: 10 μM compound, 30 minute data point, vs 1% DMSO control
Procedure, shortened: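 Percent inhibition derives from turbidity (340 nm) at 30 min relative to 1% DMSO controls, read every minute at 37° C. Polymerization mix: 3 mg/ml bovine tubulin, <3% MAPs, in PIPES pH 7 G-PEM with 1 mM GTP, 1 mM MgCl2, 5% glycerol; enhancers also detectable.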

[1] = system: A431, human epidermoid carcinoma cells; test: Cell cycle analysis (FACS), mitotic arrest in G2/M; type: cell-based; conditions: Homo sapiens, A-431, 24 h, read-out: FACS Assay: concentration required to achieve inhibition in FACS assay
Procedure, shortened: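 A431 cells, 500,000/well at treatment, exposed to compounds at 0.01–1 μM final (0.1% DMSO) for 24 h. Ethanol-fixed cells RNase-treated (1 μg/ml, 37° C., 15 min), stained with propidium iodide (50 μg/ml, 30 min, RT). DNA ploidy by flow cytometry; mitotic arrest scored as G2/M accumulation.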

[2] = system: A431 human cancer cell line; test: Sulphorhodamine B (SRB) growth inhibition assay; type: cell-based; conditions: A-431, A431 cells, 48 hours, read-out: SRB Assay: μM required to inhibit tumor cell growth by 50% (GI50)
Method: The in vitro growth inhibition activity of the compounds was determined by the Sulphorhodamine B assay. (Skehan P, Storeng R, Scudiero D, Monks A, McMahon J, Vistica D, Warren J T, Bokesch H, Kenney S, Boyd M R. New colorimetric cytotoxicity assay for anticancer-drug screening. J Natl Cancer Inst 82, 1107-1112, 1990). Sulphorhodamine B binds to basic amino acids and stains proteins which can be eluted and detected spectrophotometically by measuring absorbance at 515 nm. The absorbance was indicative of the total protein content of the cells fixed to the walls of the plate well at a given time by trichloroacetic acid, which is a measure of the viable cell concentration.
The in vitro growth inhibition activity of the compounds was determined using a Sulphorhodamine B assay. See, Skehan et al., “New colorimetric cytotoxicity assay for anticancer-drug screening,” J. Natl. Cancer Inst., 82, 1107-1112, (1990). Sulphorhodamine B binds to basic amino acids and stains proteins which can be eluted and detected spectrophotometically by measuring absorbance at 515 nm. The absorbance indicates the total protein content of the cells fixed to the walls of the plate well at a given time by trichloroacetic acid, which is a measure of the viable cell concentration.
The reagents used in the assay can be purchased from commercial sources and include Sulphorhodamine B 0.4% (w/v) in 1% (v/v) acetic acid (Sigma Cat#S-1402); trichloroacetic acid 50% (w/v) in deionized water, working solution (Sigma Cat#T-9159); and trizma base (Tris) 10 mM working solution, pH 7.5 (Sigma Cat#T-7693).
The procedure was cared out over four days. In Day 1, the cells were seeded in a seed 10,000 cells/100 μL/well in 96 well plate in duplicates as per template. Also, seed cells in extra plate for time zero (To plate). Thereafter, the cells were incubated for 24 hours at 37° C. with 5% CO2.
On Day 2, the test compound was added to the cells at five log doses from 100 μM to 0.01 μM (Volume of addition=100 μL in 1% DMSO for all compound concentrations, Control treatment=1% DMSO).
The compounds were prepared by weighing the test compounds in 1.5 ml eppendorf tubes and calculating the volume of DMSO to be added to bring the concentration of the compound to 20 mM. Thereafter, a 20 mM stock was made and diluted by four 10 fold dilutions in DMSO to get 2, 0.2, 0.02 and 0.002 mM solutions. Each solution was diluted 100 times (10 μL to 1 ml medium) and a further addition to the culture plate (100 μL) to half the concentration of cells was made. The final well concentration for 20 mM stock was 100 μM and similarly with other test concentrations.
The cells were incubated for 48 hours at 37° C. with 5% CO2 and terminated by adding 50 μL of 50% cold trichloroacetic acid (10% to final). Thereafter, the cells were incubated for one hour at 4° C.
On Day 4, the cells were fixed to the wells by the addition of 50 μL of 50% cold trichloroacetic acid (10% to final) and incubated for 1 hour at 4° C. The supernatant was discarded by force inverting the plate into the sink followed by washing thrice with tap water and the plates are then air-dried. 100 μL SRB (0.4% in 1% acetic acid) was added to each well and the plates were incubated for 10 minutes at room temperature. Unbound dye was removed by force inverting the plate into the sink and washing thrice with 1% acetic acid. Thereafter, the plates were allowed to air dry.
Bound SRB was solubilized with 100 μL of 10 mM Tris, pH 7.4 and the absorbance was measured at a wavelength of 515 nm.
A sample set of calculations was performed as follows. The percentage growth was calculated by T-To/C-To X 100 if T>To and T-To/To X 100 if T<To, wherein T is Test OD (with compound), C is Control OD, To is Time Zero OD (cell growth at the time of drug addition). […]

Compound	Tubulin Assay: percent inhibition at 10 μM based on 30 minute data (bovine tubulin)	minimal effective concentration [1]	GI50 [2]
COc1ccc(OC)c(Nc2nnc(-c3cccnc3Nc3ccc4cn[nH]c4c3)[nH]2)c1 [Compound 20, {3-[5-(2,5-Dimethoxy-phenylamino)-4H-[1,2,4]triazol-3-yl]-pyridin-2-yl}-(1H-indazol-6-yl)-amine]	44%	10 µM	0.9 µM
CN(C)c1ccc(Nc2nnc(-c3cccnc3Nc3ccc4cn[nH]c4c3)[nH]2)cc1 [Compound 21, (1H-Indazol-6-yl)-{3-[5-(4-dimethylamino-phenylamino)-4H-[1,2,4]triazol-3-yl]-pyridin-2-yl}-amine]	24%	100 µM	40 µM
COc1cccc(Nc2nnc(-c3cccnc3NCc3cccnc3)[nH]2)c1 [Compound 25, {3-[5-(3-Methoxy-phenylamino)-4H-[1,2,4]triazol-3-yl]-pyridin-2-yl}-pyridin-3-ylmethyl-amine]	77%	1 µM	0.5 µM
COc1cc(Nc2ncccc2-c2nnc(Nc3ccc4c(c3)OCO4)[nH]2)cc(OC)c1 [Compound 30, {3-[5-(Benzo[1,3]dioxol-5-ylamino)-4H-[1,2,4]triazol-3-yl]-pyridin-2-yl}-(3,5-dimethoxy-phenyl)-amine]	87%	0.1 µM	0.01 µM
c1cncc(CNc2ncccc2-c2nnc(Nc3ccc4c(c3)OCO4)[nH]2)c1 [Compound 31, {3-[5-(Benzo[1,3]dioxol-5-ylamino)-4H-[1,2,4]triazol-3-yl]-pyridin-2-yl}-pyridin-3-ylmethyl-amine]	49%	1 µM	0.25 µM
COc1ccc(Nc2nnc(-c3cccnc3NCc3ccc4c(c3)OCO4)[nH]2)cc1 [Compound 54, Benzo[1,3]dioxol-5-ylmethyl-{3-[5-(4-methoxy-phenylamino)-4H-[1,2,4]triazol-3-yl]-pyridin-2-yl}-amine]	38%	10 µM	7.5 µM
CS(=O)(=O)c1ccc(-c2nnc(-c3cccnc3NCc3ccc4c(c3)OCO4)[nH]2)cc1 [Compound 77, Benzo[1,3]dioxol-5-ylmethyl-{3-[5-(4-methanesulfonyl-phenyl)-4H-[1,2,4]triazol-3-yl]-pyridin-2-yl}-amine]	28%	10 µM	4.5 µM
COc1ccc(-c2nnc(-c3cccnc3NCc3ccc4c(c3)OCO4)[nH]2)cc1OC [Compound 78, Benzo[1,3]dioxol-5-ylmethyl-{3-[5-(3,4-dimethoxy-phenyl)-4H-[1,2,4]triazol-3-yl]-pyridin-2-yl}-amine]	55%	1 µM	3 µM
COc1cccc(-c2nnc(-c3cccnc3NCc3cccnc3)[nH]2)c1 [Compound 85, {3-[5-(3-Methoxy-phenyl)-4H-[1,2,4]triazol-3-yl]-pyridin-2-yl}-pyridin-3-ylmethyl-amine]	61%	1 µM	8 µM
COc1ccc(-c2nnc(-c3cccnc3NCc3cccnc3)[nH]2)cc1OC [Compound 88, {3-[5-(3,4-Dimethoxy-phenyl)-4H-[1,2,4]triazol-3-yl]-pyridin-2-yl}-pyridin-3-ylmethyl-amine]	29%	10 µM	1.2 µM
COc1cccc(Nc2nnc(-c3ccccc3NCc3ccncc3)[nH]2)c1 [Compound 115, (3-Methoxy-phenyl)-(5-{2-[(pyridin-4-ylmethyl)-amino]-phenyl}-4H-[1,2,4]triazol-3-yl)-amine]	79%	1 µM	1.5 µM
